Holding throughout (assay type): cell-based
Test [1] has as its system A-673 cells. Nature of the test: Cell viability, crystal violet staining. The settings on record: Homo sapiens, A673, cell viability. In a few lines: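 Readout is absorbance at 570 nm of crystal violet, taken up in 0.1 M sodium citrate in 50% ethanol after staining with 0.5% dye in 25% methanol. Plates held 5×10^3 cells per well, and compounds were added one day after seeding for 72 hours. Data are relative to vehicle, mean±SE.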

Test [2] concerns FOXM1^A2 mRNA and FOXM1^BC mRNA. Nature of the test: Splicing assay (FOXM1), qPCR of isoform mRNAs. The note with it: for IC50: FoxM1 BC mRNA decrease (exon included). In a few lines: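 RT-qPCR read-out after 24 h compound exposure at 37° C., 0.2% DMSO, top dose 10 μM with 4-fold 8-point dilutions, 20,000 cells per well. Copy numbers from plasmid standard curves, PPIA-normalized, expressed as isoform ratio relative to DMSO.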
Background: Quantitative PCR measures a nucleic acid by following its amplification.

For test [3], the system named is IKBKAP^Δ20 mRNA. Nature of the test: IKBKAP splicing assay, qPCR. The note with it: 24 hours of incubation. How it is done:
(§1) Various cells lines were treated with the SMSMs described herein. RNA was then isolated, cDNA synthesized, qPCR performed and the levels of IKBKAP targets of the SMSMs were determined.
(§2) On the day of the experiment, a 96-well plate was seeded with the cell lines of interest. The cells were diluted with full growth media to a concentration of 2.0×10^5 cells/mL and 100 μL of cells were added to each well (20,000 cells per well). The cells were treated with a compound immediately after plating.
(§3) The compounds were then added to the cell plate using the HP compound dispenser. In the initial experiment, a top concentration of 10 μM and an 8 point 4-fold dilution scheme was used. The stock compounds were made at a concentration of 5 mM, and the DMSO concentration was set to 0.2%. DMSO was used to normalize all the compound-containing wells and the untreated cells.
(§4) The treated cells were incubated at 37° C. in a 5% CO2 incubator for the desired amount of time. Plates were placed in a plastic bag with a wet paper towel to prevent evaporation.
(§5) RNA was isolated using the Cells to CT kit (ThermoFisher, AM1728). The cells were washed once with 100 μL cold PBS. 50 μL of lysis buffer was added to each well/tube (49.5 μL lysis buffer+0.5 μL DNase I per well/tube). The lysis reaction was mixed and incubated at room temperature for 5 minutes. 5 μL of stop solution was added directly into each cell lysis reaction and mixed by pipetting up and down 5 times. The plates/tubes were incubated at room temperature for 2 minutes then placed on ice if the cDNA synthesis was to be performed immediately. Otherwise, the plates/tubes were stored at −80° C.
(§6) cDNA synthesis reactions were then performed. 40 μL RT master mix was added to PCR tubes or plate wells. 10 μL of RNA was added to each tube/well. The RT thermal cycler program was then run and tubes or plate wells were incubated at 37° C. for 1 hour, then at 95° C. for 5 minutes to deactivate the enzyme.
(§7) The qPCR was performed using a QuantStudio 6 instrument (ThermoFisher) and the following cycling conditions and according to the tables below. All samples and standards were analyzed in triplicate. Cycle 1: 2 minutes at 50° C. Cycle 2: 10 minutes at 95° C. Cycle 3 (repeat 40 times): 15 seconds at 95° C., 1 minute at 60° C.
(§8) The determined IKBKAP^FL and […] isoform quantities were then used to determine the IKBKAP^FL: IKBKAP^Δ20 ratio at increasing SMSM compound concentrations. The PPIA quantities were used in the normalization to account of cell proliferation effects of the compounds.
(§9) An assay to measure the IKBKAP^FL mRNA and IKBKAP^Δ20 mRNA simultaneously in cell wells was performed. The RNA values were measured relative to DMSO control and also included a housekeeping gene, PPIA to ensure data was consistent. The mRNA values were measured after 24 hours of incubation with the SMSM compounds.

Test [4] relates to IKBKAP^FL mRNA. Nature of the test: IKBKAP splicing assay, qPCR. The note with it: 24 hours of incubation. How it is done:
as §1, §2, §3, §4, §5, §6, §7, §8, §9

Setting [5] is: read-out: A-673 IC50 (nM), Cell viability.
The mark [6] stands for this setting: 24 h, 0.1-1000 nM, 24 hours, read-out: Splice IC50 (nM), FoxM1 BC mRNA decrease (exon included).
Setting [7] is: FoxM1 A mRNA increase (exon excluded), 0.1-1000 nM, 24 hours, read-out: Splice EC50 (nM), FoxM1 A mRNA increase (exon excluded).
Where [8] appears, read: read-out: A-673 IC50 (nM) Cell viability.
Where [9] appears, read: read-out: Splice IC50 (nM) FoxM1 BC mRNA decrease (exon included).
The mark [10] stands for this setting: read-out: Splice EC50 (nM) FoxM1 A mRNA increase (exon excluded).

Read-outs that look alike come from different tables or passages of the source.

17 molecules from US11008572B2, “Methods and compositions for modulating splicing” (SKYHAWK THERAPEUTICS, INC., priority 2017, dated 2021) can be followed below.

The IC50 is the point on the concentration scale where inhibition reaches its midpoint. For orientation: EC50 means the midpoint of the concentration-response curve.

Consider `[2H]C([2H])([2H])n1ncc(-c2ccc(-c3ccc(N(C)[C@@H]4C[C@H]5CC[C@@H](C4)N5)nn3)c(O)c2)cc1=O` [compound 282, 5-(4-(6-(((1R,3s,5S)-8-azabicyclo[3.2.1]octan-3-yl)(methyl)amino)pyridazin-3-yl)-3-hydroxyphenyl)-2-(methyl-d3)pyridazin-3(2H)-one], for which the IC50 in test [1] (setting [5]) was in the range of 10 to 100 nM; in test [2] (setting [6]), 10 to 100 nM; in test [3] it was 201 to 1000 nM. Besides, the half-maximal effective concentration (EC50) in test [2] (setting [7]) was under 10 nM; in test [4] it was 101 to 350 nM.

In the case of `CN(c1ccc(-c2ccc(-c3cc(=O)n(C)cn3)cc2O)nn1)[C@H]1C[C@]2(C)CCC[C@](C)(C1)N2` [compound 266, 6-(4-(6-(((1R,3s,5S)-1,5-dimethyl-9-azabicyclo[3.3.1]nonan-3-yl)(methyl)amino)pyridazin-3-yl)-3-hydroxyphenyl)-3-methylpyrimidin-4(3H)-one], the IC50 in test [1] (setting [5]) was 10 to 100 nM; in test [3] it was under 200 nM. In addition, the concentration giving a half-maximal response (EC50) in test [4] was under 100 nM.

Regarding `CN(c1ccc(-c2ccc(-c3cn[nH]c3)cc2O)nn1)[C@@H]1C[C@H]2COC[C@@H](C1)N2` [compound 154, 2-(6-(((1R,5S,7r)-3-oxa-9-azabicyclo[3.3.1]nonan-7-yl)(methyl)amino)pyridazin-3-yl)-5-(1H-pyrazol-4-yl)phenol], the IC50 in test [1] (setting [8]) and in test [2] (setting [9]) was 10 to 100 nM in each case. The half-maximal effective concentration (EC50) was in the range of 10 to 100 nM in test [2] (setting [10]) and 351 to 1000 nM in test [4].

On to `Oc1cc(-c2cn[nH]c2)c(F)cc1-c1ccc(O[C@@H]2C[C@H]3CCC[C@@H](C2)N3)nn1` [compound 278, 2-(6-(((1R,3s,5S)-9-azabicyclo[3.3.1]nonan-3-yl)oxy)pyridazin-3-yl)-4-fluoro-5-(1H-pyrazol-4-yl)phenol], for which the half-maximal inhibitory concentration (IC50) in test [1] (setting [5]) was 10 to 100 nM; in test [3] it was under 200 nM. This molecule also came in with an EC50 in test [4] of 101 to 350 nM.

Consider `CN(c1ccc(-c2ccc(-c3cn[nH]c3)cc2O)nn1)C1[C@H]2CN(C(=O)CCN)C[C@@H]12` (stereo partly drawn) [compound 315, 3-amino-1-((1R,5S)-6-((6-(2-hydroxy-4-(1H-pyrazol-4-yl)phenyl)pyridazin-3-yl)(methyl)amino)-3-azabicyclo[3.1.0]hexan-3-yl)propan-1-one], for which the IC50 in test [3] was over 1000 nM. For the same molecule, the EC50 in test [4] is over 1000 nM.

On to `[2H]C([2H])([2H])n1ncc(-c2ccc(-c3ccc(N(C)C4CC5CCCC(C4)N5)nn3)c(O)c2)cc1=O` [compound 281, 5-(4-(6-(((1R,3s,5S)-9-azabicyclo[3.3.1]nonan-3-yl)(methyl)amino)pyridazin-3-yl)-3-hydroxyphenyl)-2-(methyl-d3)pyridazin-3(2H)-one], for which the concentration for half-maximal inhibition (IC50) in test [1] (setting [5]) and in test [2] (setting [6]) was under 10 nM throughout. In addition, the EC50 in test [2] (setting [7]) is under 10 nM.

On to `Oc1cc(-n2ccnn2)ccc1-c1ccc(O[C@@H]2C[C@H]3CC[C@@H](C2)N3)nn1` [compound 252, 2-(6-(((1R,3s,5S)-8-azabicyclo[3.2.1]octan-3-yl)oxy)pyridazin-3-yl)-5-(1H-1,2,3-triazol-1-yl)phenol], for which the IC50 in test [1] (setting [5]) lay within 501 to 1000 nM; in test [2] (setting [6]), 251 to 500 nM. Moreover, in test [2] (setting [7]), the EC50 lay in the range of 101 to 250 nM.

With `CN(c1ccc(-c2ccc(-c3cn[nH]c3)cc2O)nn1)[C@@H]1C[C@H]2C[C@@H]1CN2` [compound 148, 2-(6-(((1R,4R,5R)-2-azabicyclo[2.2.1]heptan-5-yl)(methyl)amino)pyridazin-3-yl)-5-(1H-pyrazol-4-yl)phenol], the IC50 in test [1] (setting [8]) and in test [2] (setting [9]) was over 1000 nM throughout. Moreover, in test [2] (setting [10]), the EC50 was over 1000 nM.

With `CN(c1ccc(-c2ccc(-c3cn[nH]c3)cc2O)nn1)[C@@H]1C[C@H]2CNC[C@H]2C1` [compound 143, 2-(6-(methyl((3R,5s,6S)-octahydrocyclopenta[c]pyrrol-5-yl)amino)pyridazin-3-yl)-5-(1H-pyrazol-4-yl)phenol], the results for the IC50 in test [1] (setting [8]) and in test [2] (setting [9]) were over 1000 nM and 501 to 1000 nM, respectively. The concentration giving a half-maximal response (EC50) in test [2] (setting [10]) lay within 251 to 500 nM.

In the case of `CN(c1ccc(-c2cc3cccnc3cc2O)nn1)[C@@H]1C[C@H]2CC[C@@H](C1)N2` [compound 162, 6-(6-(((1R,3s,5S)-8-azabicyclo[3.2.1]octan-3-yl)(methyl)amino)pyridazin-3-yl)quinolin-7-ol], the IC50 lay within 251 to 500 nM in test [1] (setting [8]) and 201 to 1000 nM in test [3].

On to `CN(c1ccc(-c2cc(F)c(-c3cc[nH]c(=O)c3)cc2O)nn1)[C@H]1C[C@]2(C)CCC[C@](C)(C1)N2` [compound 307, 4-(4-(6-(((1R,3s,5S)-1,5-dimethyl-9-azabicyclo[3.3.1]nonan-3-yl)(methyl)amino)pyridazin-3-yl)-2-fluoro-5-hydroxyphenyl)pyridin-2(1H)-one], for which the IC50 in test [1] (read-out: A-673 IC50 (nM), cell viability) was 10 to 100 nM; in test [2] (read-out: Splice IC50 (nM), FoxM1 BC mRNA decrease (exon included)) it was under 10 nM. In test [2] (read-out: Splice EC50 (nM), FoxM1 A mRNA increase (exon excluded)), the half-maximal effective concentration (EC50) was under 10 nM.

Turning to `Cc1cn(-c2ccc(-c3ccc(O[C@@H]4C[C@H]5CC[C@@H](C4)N5)nn3)c(O)c2)cn1` [compound 246, 2-(6-(((1R,3s,5S)-8-azabicyclo[3.2.1]octan-3-yl)oxy)pyridazin-3-yl)-5-(4-methyl-1H-imidazol-1-yl)phenol], the concentration for half-maximal inhibition (IC50) in test [1] (setting [5]) lay within 251 to 500 nM; in test [2] (setting [6]), 101 to 250 nM. Moreover, the concentration giving a half-maximal response (EC50) in test [2] (setting [7]) was in the range of 10 to 100 nM.

For the molecule `Cc1ccn(-c2ccc(-c3ccc(N(C)[C@@H]4C[C@H]5CC[C@@H](C4)N5)nn3)c(O)c2)n1` [compound 222, 2-(6-(((1R,3s,5S)-8-azabicyclo[3.2.1]octan-3-yl)(methyl)amino)pyridazin-3-yl)-5-(3-methyl-1H-pyrazol-1-yl)phenol], the half-inhibitory concentration (IC50) in test [1] (setting [5]) and in test [2] (setting [6]) was 10 to 100 nM throughout. For the same molecule, in test [2] (setting [7]), the EC50 is under 10 nM.

With `CN(c1ccc(-c2ccc(-c3cn[nH]c3)cc2O)nn1)[C@H]1[C@@H]2CC[C@H]1CNC2` [compound 145, 2-(6-(((1R,5S,8r)-3-azabicyclo[3.2.1]octan-8-yl)(methyl)amino)pyridazin-3-yl)-5-(1H-pyrazol-4-yl)phenol], the IC50 in test [1] (setting [8]) and in test [2] (setting [9]) was over 1000 nM each time. In addition, in test [2] (setting [10]), the concentration giving a half-maximal response (EC50) was over 1000 nM.

`CN(c1ccc(-c2ccc(-c3cn[nH]c3)cc2O)nn1)[C@H]1C[C@@H]2C[C@H]1CN2` [compound 149, 2-(6-(((1S,4S,5S)-2-azabicyclo[2.2.1]heptan-5-yl)(methyl)amino)pyridazin-3-yl)-5-(1H-pyrazol-4-yl)phenol]: the IC50 in test [1] (setting [8]) and in test [2] (setting [9]) was over 1000 nM throughout. Also, the 50% effective concentration (EC50) in test [2] (setting [10]) is 251 to 500 nM.

With `CN(c1ccc(-c2ccc(-c3cn[nH]c3)cc2O)nc1)C1CC(C)(C)NC(C)(C)C1` [compound 135, 2-(5-(methyl(2,2,6,6-tetramethylpiperidin-4-yl)amino)pyridin-2-yl)-5-(1H-pyrazol-4-yl)phenol], the IC50 in test [1] (setting [8]) and in test [2] (setting [9]) was over 1000 nM in each case. Besides, in test [2] (setting [10]), the EC50 was over 1000 nM.

On to `Cc1cnn(-c2ccc(-c3ccc(O[C@@H]4C[C@H]5CC[C@@H](C4)N5)nn3)c(O)c2)c1` [compound 249, 2-(6-(((1R,3s,5S)-8-azabicyclo[3.2.1]octan-3-yl)oxy)pyridazin-3-yl)-5-(4-methyl-1H-pyrazol-1-yl)phenol], for which the IC50 lay within 501 to 1000 nM in test [1] (setting [5]) and 251 to 500 nM in test [2] (setting [6]). Moreover, the concentration giving a half-maximal response (EC50) in test [2] (setting [7]) lay within 101 to 250 nM.
